Several values for one entry are separate records, joined by “and”; a condition that tells them apart may be missing. Equal entries are not always repeated.
Experiments:
[1] = UV-Vis absorption spectra in MeOH; type: physicochemical
Procedure: The absorption spectra of (oxidopyridyl)porphyrins were recorded in HPLC grade MeOH on a Cary UV 60 (Agilent Technologies, Santa Clara, CA, USA), in a wavelength range of 300–700 nm. The fluorescence spectra in HPLC grade MeOH were recorded on a Cary Eclipse (Agilent Technologies) in a wavelength range of 500–800 nm after excitation at the Soret band wavelength (λ ~ 420 nm). The slits of the spectrometer were set to a bandpass of 5 nm for the excitation and 5 nm for the emission. To calculate the fluorescence quantum yields, the measurements were conducted on an FS5 Edinburgh Instruments spectrometer. Prior to taking the measurements, the solutions were purged with high-purity N2 for at least 15 min. The absorbance of the solutions was set to A < 0.1 at 405 nm and 550 nm, which settings were used for the excitation process. Emission was recorded from 550 to 800 nm, with slits set to the bandpass corresponding to 2 nm for the excitation, and 3 nm for the emission. Fluorescence quantum yield (ΦFL) was calculated in comparison to the tetraphenylporphyrin (TPP; ΦFL = 0.11 [23]) as a standard, according to Equation (S1) and following an equation previously described elsewhere.

[2] = Fluorescence decay by time-correlated single-photon counting (TC-SPC); type: physicochemical; settings: MeOH, N2, λex 405 nm
Procedure: Time-correlated single-photon counting (TC-SPC) was used to obtain information about fluorescence decays. All measurements were performed on an FS5 Edinburgh Instruments device with a pulsed laser at 405 nm wavelength, which was used for the excitation process (pulse duration 60 ps). Fluorescence signals were monitored at 660 nm over 1023 channels, with a time increment of ≈49 ps/channel. Porphyrins were dissolved in MeOH (HPLC grade), with the absorbance adjusted to 0.1 a.u. at the excitation wavelength, and the solution was degassed with N2 for 15 min before the measurements were taken. All the decays were collected until they reached 3000 counts in the peak channel. A scattering solution, a silica gel suspension in H2O, was used to obtain the instrument response function (IRF). The histograms were analysed using a nonlinear least-squares deconvolution method via the software implemented with the instrument.

CCCCCCCCCCCCCCCCCC(=O)Nc1ccc(-c2c3nc(c(-c4ccc[n+]([O-])c4)c4ccc([nH]4)c(-c4ccc[n+]([O-])c4)c4nc(c(-c5ccc[n+]([O-])c5)c5ccc2[nH]5)C=C4)C=C3)cc1 [TOPyP3-C17H35, 5-(4-Octadecanamidophenyl)-10,15,20-tris(1-oxido-3-pyridyl)porphyrin]
ε Qx (0-0) [1]: 1600 M⁻¹ cm⁻¹
ε Qx (1-0) [1]: 4500 M⁻¹ cm⁻¹
ε Qy (0-0) [1]: 4300 M⁻¹ cm⁻¹
ε Qy (1-0) [1]: 15000 M⁻¹ cm⁻¹
ε Soret (B) [1]: 275400 M⁻¹ cm⁻¹
λabs Qx (0-0) [1]: 646 nm
λabs Qx (1-0) [1]: 587 nm
λabs Qy (0-0) [1]: 547 nm
λabs Qy (1-0) [1]: 512 nm
λabs Soret (B) [1]: 417 nm
contribution of τ1 (% of the decay) [2]: 1%
contribution of τ2 (% of the decay) [2]: 99%
τFL, longer decay time τ2 [2]: 7.82 ± 0.02 ns and 7.82 ns
τFL, short decay time τ1 [2]: 0.57 ± 0.08 ns and 0.57 ns
